Entries after “also recorded” stand apart in the source; their conditions may differ.

The target of one experiment is Nav 1.8 (Homo sapiens, UniProt Q9Y5Y9). As to conditions: cited from earlier work.
Another experiment has as its target Nav 1.9 (Homo sapiens, UniProt Q9UI33). As to conditions: cited from earlier work.
A further experiment has as its target Nav 1.5 (Homo sapiens, UniProt Q14524). As to conditions: cited from earlier work.
For experiment [1], the system named is primary cultures of neurones from spinal ganglia of KO mice for Nav 1.9. Description: Release of CGRP by primary neurone cultures after treatment with capsaicin (ELISA), Nav 1.9 KO mice. Format: cell-based, mouse. The conditions noted are these: capsaicin 300 nM, 15 min; neurone cultures from Nav 1.9 KO mice; versus without treatment. On the technique in general: An ELISA detects its analyte on a solid surface through an enzyme-linked reagent.

Sequence of Nav 1.9 (Q9UI33 whole entry, looked up): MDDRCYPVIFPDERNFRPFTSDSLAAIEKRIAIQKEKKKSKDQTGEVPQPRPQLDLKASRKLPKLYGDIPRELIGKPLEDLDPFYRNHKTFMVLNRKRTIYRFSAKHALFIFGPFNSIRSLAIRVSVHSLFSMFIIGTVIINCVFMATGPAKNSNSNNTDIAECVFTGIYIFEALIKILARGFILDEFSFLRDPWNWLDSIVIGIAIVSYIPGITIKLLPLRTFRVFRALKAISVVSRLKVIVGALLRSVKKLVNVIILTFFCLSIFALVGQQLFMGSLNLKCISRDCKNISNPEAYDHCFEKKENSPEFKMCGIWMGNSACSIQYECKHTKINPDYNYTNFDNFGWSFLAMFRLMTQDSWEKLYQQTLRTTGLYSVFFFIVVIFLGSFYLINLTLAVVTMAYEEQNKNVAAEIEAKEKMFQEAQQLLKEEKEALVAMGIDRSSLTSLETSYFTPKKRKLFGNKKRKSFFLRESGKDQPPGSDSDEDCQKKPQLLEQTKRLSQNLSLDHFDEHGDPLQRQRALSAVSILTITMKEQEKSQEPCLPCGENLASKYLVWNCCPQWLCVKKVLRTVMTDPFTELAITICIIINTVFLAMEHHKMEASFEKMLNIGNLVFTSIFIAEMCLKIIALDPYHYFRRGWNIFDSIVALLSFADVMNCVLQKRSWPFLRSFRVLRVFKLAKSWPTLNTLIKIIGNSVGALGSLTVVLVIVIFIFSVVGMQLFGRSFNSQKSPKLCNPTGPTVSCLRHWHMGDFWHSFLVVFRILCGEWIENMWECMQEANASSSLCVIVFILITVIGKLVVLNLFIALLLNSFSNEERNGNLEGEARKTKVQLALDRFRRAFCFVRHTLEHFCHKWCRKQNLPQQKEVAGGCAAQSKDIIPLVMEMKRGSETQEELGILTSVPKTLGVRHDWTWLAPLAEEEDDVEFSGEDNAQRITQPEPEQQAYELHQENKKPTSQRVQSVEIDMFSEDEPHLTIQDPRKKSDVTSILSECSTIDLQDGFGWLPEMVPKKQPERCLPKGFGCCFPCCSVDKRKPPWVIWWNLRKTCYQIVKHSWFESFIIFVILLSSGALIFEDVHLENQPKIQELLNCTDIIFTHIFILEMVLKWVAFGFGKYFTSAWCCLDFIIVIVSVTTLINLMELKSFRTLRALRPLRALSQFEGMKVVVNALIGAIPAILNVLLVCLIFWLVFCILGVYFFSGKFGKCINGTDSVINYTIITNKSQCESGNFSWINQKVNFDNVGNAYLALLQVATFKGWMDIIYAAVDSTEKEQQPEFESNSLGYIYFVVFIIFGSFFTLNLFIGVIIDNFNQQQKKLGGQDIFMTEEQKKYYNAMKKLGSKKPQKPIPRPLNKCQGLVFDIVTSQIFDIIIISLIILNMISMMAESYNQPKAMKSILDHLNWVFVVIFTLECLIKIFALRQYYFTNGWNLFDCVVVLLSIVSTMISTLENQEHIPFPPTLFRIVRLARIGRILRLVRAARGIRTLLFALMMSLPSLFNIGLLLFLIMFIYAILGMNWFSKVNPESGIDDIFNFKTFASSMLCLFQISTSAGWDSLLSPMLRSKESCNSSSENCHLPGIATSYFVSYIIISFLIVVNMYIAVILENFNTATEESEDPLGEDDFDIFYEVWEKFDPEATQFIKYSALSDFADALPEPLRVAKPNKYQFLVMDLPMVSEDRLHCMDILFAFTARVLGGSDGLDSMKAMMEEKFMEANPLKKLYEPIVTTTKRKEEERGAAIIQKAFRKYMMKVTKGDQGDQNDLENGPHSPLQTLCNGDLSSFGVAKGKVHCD
Sequence of Nav 1.8 (Q9Y5Y9 whole entry, looked up): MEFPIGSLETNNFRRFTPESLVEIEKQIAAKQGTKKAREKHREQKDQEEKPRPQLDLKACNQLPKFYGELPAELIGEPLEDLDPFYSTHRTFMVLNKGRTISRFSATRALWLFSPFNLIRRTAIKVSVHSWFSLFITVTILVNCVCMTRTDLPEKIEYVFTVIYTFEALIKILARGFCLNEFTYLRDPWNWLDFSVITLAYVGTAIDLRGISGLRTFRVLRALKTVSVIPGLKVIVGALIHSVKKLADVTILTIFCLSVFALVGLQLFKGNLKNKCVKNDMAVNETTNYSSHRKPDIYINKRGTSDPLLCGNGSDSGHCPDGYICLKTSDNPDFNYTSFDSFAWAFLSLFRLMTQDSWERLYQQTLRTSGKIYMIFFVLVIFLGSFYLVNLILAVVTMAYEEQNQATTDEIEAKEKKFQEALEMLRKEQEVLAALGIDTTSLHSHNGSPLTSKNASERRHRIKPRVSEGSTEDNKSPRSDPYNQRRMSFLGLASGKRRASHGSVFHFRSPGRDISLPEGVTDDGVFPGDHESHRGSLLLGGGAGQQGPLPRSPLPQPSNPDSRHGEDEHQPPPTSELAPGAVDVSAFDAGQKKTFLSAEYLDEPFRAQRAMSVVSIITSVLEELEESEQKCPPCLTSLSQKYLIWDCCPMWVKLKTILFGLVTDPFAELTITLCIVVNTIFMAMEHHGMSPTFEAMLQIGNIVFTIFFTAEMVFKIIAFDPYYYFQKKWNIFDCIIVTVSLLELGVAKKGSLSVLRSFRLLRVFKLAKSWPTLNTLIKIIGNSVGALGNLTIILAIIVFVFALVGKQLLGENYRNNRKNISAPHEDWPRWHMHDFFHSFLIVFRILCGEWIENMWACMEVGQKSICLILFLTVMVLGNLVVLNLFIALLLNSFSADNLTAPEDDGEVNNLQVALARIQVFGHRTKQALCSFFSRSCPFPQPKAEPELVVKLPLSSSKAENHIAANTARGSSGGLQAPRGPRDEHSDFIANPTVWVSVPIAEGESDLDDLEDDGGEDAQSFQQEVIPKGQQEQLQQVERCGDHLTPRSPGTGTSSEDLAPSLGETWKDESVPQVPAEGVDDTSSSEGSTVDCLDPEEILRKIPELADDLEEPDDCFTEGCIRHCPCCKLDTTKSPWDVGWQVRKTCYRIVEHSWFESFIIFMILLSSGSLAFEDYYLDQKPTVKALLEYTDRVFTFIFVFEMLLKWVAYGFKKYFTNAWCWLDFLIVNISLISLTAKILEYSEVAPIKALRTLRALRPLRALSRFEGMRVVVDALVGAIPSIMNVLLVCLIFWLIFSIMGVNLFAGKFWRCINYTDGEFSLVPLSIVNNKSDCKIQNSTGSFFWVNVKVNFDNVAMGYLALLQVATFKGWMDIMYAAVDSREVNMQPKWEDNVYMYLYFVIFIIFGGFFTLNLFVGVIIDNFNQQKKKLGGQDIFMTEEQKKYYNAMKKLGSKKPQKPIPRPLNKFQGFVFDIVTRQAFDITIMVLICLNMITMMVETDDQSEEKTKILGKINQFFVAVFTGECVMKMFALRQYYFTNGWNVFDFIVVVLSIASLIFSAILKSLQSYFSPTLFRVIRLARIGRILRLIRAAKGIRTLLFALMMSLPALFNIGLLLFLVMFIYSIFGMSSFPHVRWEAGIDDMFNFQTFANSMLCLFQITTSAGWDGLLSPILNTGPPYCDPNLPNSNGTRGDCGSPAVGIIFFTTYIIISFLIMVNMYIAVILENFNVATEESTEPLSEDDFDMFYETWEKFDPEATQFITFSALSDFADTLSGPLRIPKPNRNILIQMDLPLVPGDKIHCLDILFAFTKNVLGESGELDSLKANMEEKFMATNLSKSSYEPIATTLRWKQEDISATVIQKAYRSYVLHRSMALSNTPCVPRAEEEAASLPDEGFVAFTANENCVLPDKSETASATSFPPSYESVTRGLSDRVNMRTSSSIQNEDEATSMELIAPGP

For `NC1=N[C@H](O)[C@H]2[C@H]3O[C@]4(O)O[C@@H]([C@@H](O)[C@@]2(N1)[C@@H]4O)[C@]3(O)CO` [TTX, tetrodotoxin], the “sensitivity to tetrodotoxin (TTX)” value at Nav 1.8, on Nav 1.9 and at Nav 1.5 was “resistant” in each case. Also, on Nav 1.9 (read-out: EC50 of the TTX for Nav 1.9), the concentration for a half-maximal effect (EC50) was ~200 µM.

In the case of `COc1cc(CNC(=O)CCCC/C=C/C(C)C)ccc1O` [capsaicin], the “variation in the amount of CGRP released in the supernatant” value in experiment [1] is on record as “no variation; also recorded: no increase”.

In general, EC50 refers to the concentration that produces a half-maximal response.

Source of the values: patent publication US9944699B2, “In vitro method for identifying compounds of the Nav 1.9 sodium channel intended for the treatment of an inflammatory skin disease” (GALDERMA RESEARCH & DEVELOPMENT, priority 2013, dated 2018).
